From PubChem BioAssay (NCI)
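A five-concentration, 48-hour dose response in 96-well plates underlies each endpoint, interpolated linearly between surrounding concentrations. GI50 = concentration required for 50% inhibition of growth. At the TGI there is no net growth.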 The source made the active and inactive calls. No stated cut-off is given here; in the data, active means GI50 below about 0.43 µM; inactive means the rest.

Experiments:
Assay in all cases: NCI-60 cell line screen, 48 h
[1] = test system: DLD-1 colon
[2] = test system: DMS 114 small cell lung
[3] = test system: HOP-18 NSCLC
[4] = test system: KM12 colon
[5] = test system: M19-MEL melanoma
[6] = test system: MALME-3M melanoma
[7] = test system: OVCAR-3 ovarian
[8] = test system: SK-MEL-2 melanoma
[9] = test system: HS 578T breast
[10] = test system: LOX IMVI melanoma
[11] = test system: MDA-MB-435

Row | SMILES | TGI [1] | TGI [2] | TGI [3] | TGI [4] | TGI [5] | TGI [6] | TGI [7] | TGI [8] | GI50 [9] | TGI [9] | GI50 [4] | GI50 [10] | TGI [10] | GI50 [6] | GI50 [11] | TGI [11] | GI50 [7] | GI50 [8] | outcome [9] | outcome [7]
1 | Cc1cc(N(CCC#N)CCC#N)ccc1/C=C1\N=C(c2cc([N+](=O)[O-])ccc2Cl)N(c2cccc(Cl)c2)C1=O | > 100 µM | > 100 µM | > 100 µM | > 100 µM | > 100 µM | > 100 µM | > 100 µM | > 100 µM | – | – | – | – | – | – | – | – | – | – | – | –
2 | CC[C@@]1(c2ccccc2)C2=C(CC(C)(C)CC2=O)Nc2[nH]ncc21 | – | – | – | > 100 µM | – | > 100 µM | > 100 µM | > 100 µM | 96.4 µM | > 100 µM | > 100 µM | > 100 µM | > 100 µM | > 100 µM | > 100 µM | > 100 µM | > 100 µM | > 100 µM | – | –
3 | O/N=C/c1ncccc1C1OCCO1 | > 100 µM | > 100 µM | > 100 µM | > 100 µM | > 100 µM | > 100 µM | > 100 µM | > 100 µM | – | – | – | – | > 100 µM | – | – | – | – | – | – | –
4 | C[C@@H]1OC(=O)N2CCCC(=C3SCCCS3)C12 (some centres not stated) | – | > 100 µM | > 100 µM | > 100 µM | > 100 µM | > 100 µM | > 100 µM | > 100 µM | – | – | – | – | > 100 µM | – | – | – | – | – | – | –
5 | COc1cc2ncn(-c3cc(OCc4cccs4)c(C(N)=O)s3)c2cc1OC | – | – | – | > 17.5 µM | – | > 25 µM | > 6.89 µM | 17 µM | 5.94 µM | > 25 µM | 0.772 µM | 1.19 µM | > 19.2 µM | 2.5 µM | 0.502 µM | 1.71 µM | 0.828 µM | 2.08 µM | – | –
6 | O=C1c2cccc([N+](=O)[O-])c2C(=O)N1c1ncn[nH]1 | – | – | – | > 100 µM | – | > 100 µM | > 100 µM | > 100 µM | – | > 100 µM | – | – | > 100 µM | – | – | > 100 µM | – | – | – | –
7 | CCCC(=O)OCC1OC(n2cnc3c(=S)nc[nH]c32)C(OC(=O)CCC)C1OC(=O)CCC (configuration not stated) | – | – | – | > 100 µM | – | > 100 µM | > 100 µM | > 100 µM | > 100 µM | > 100 µM | 4.99 µM | 2.34 µM | > 100 µM | 38.5 µM | 3.55 µM | > 100 µM | 0.92 µM | 28.1 µM | – | –
8 | COc1ccc(N2C(=O)/C(=C/c3ccc(N(CCC#N)CCC#N)cc3C)N=C2c2cc([N+](=O)[O-])ccc2Cl)cc1 | > 100 µM | > 23.5 µM | > 100 µM | 45.8 µM | > 100 µM | > 56.2 µM | 11.3 µM | 39.6 µM | – | 5.96 µM | – | – | > 56.2 µM | – | – | 6.1 µM | – | – | – | –
9 | CCCCCCCCn1ccc2cc(NC(=O)Cn3cc(CN4CCCC4)nn3)ccc21 | – | – | – | 3.98 µM | – | 2.89 µM | 4.9 µM | 3.66 µM | 1.91 µM | 4.74 µM | 1.95 µM | 1.62 µM | 3.01 µM | 1.52 µM | 1.73 µM | 3.24 µM | 2.13 µM | 1.86 µM | – | –
10 | CC/C=C\C[C@@H](O)C/C=C1/C(=O)C=C[C@H]1C/C=C\CCCC(=O)OC | – | – | – | 3.84 µM | – | 9.3 µM | 10.3 µM | 21.6 µM | 4.06 µM | 26.2 µM | 1.65 µM | 0.329 µM | 1.51 µM | 2.87 µM | 1.93 µM | 5.86 µM | 3.1 µM | 6.99 µM | – | –
11 | C/C(O)=C(\N=O)C(=O)Nc1ccc(Cl)cc1Cl | > 100 µM | > 100 µM | > 100 µM | > 100 µM | > 100 µM | > 100 µM | > 100 µM | > 100 µM | – | – | – | – | > 100 µM | – | – | – | – | – | – | –
12 | Cc1c(C(=O)C/C(=N/NC(=O)C[N+](C)(C)C)C(=O)Nc2ccc(Cl)cc2)[n+](=O)c2ccccc2n1O | > 100 µM | > 100 µM | > 100 µM | > 100 µM | > 100 µM | > 100 µM | > 100 µM | > 100 µM | – | – | – | – | > 100 µM | – | – | – | – | – | – | –
13 | O=C(CC1(O)C(=O)Nc2ccccc21)c1ccncc1 (configuration not stated) | > 100 µM | > 100 µM | – | – | > 100 µM | – | – | > 100 µM | – | – | – | – | > 100 µM | – | – | – | – | – | – | –
14 | CCOC(=O)/C(C#N)=C/c1[nH]c(C(=O)OCc2ccccc2)c(C)c1C | > 100 µM | > 100 µM | > 100 µM | > 100 µM | > 100 µM | > 100 µM | > 100 µM | > 100 µM | – | – | – | – | > 100 µM | – | – | – | – | – | – | –
15 | COC1(OC)CC2OC1C1N=NN(C(=O)OC(C)(C)C)C21 (configuration not stated) | > 100 µM | > 100 µM | > 100 µM | > 100 µM | > 100 µM | > 100 µM | > 100 µM | > 100 µM | – | – | – | – | > 100 µM | – | – | – | – | – | – | –
16 | COc1ccc(C(=O)C#Cc2cnc(OC)nc2OC)cc1 | – | – | – | 11.6 µM | – | – | 3.24 µM | – | – | 27.7 µM | 56100 µM | 9800 µM | – | 16600 µM | 28200 µM | – | – | 36100 µM | inactive | inactive
17 | O=C(O)c1nn(-c2ccccc2-c2n[nH]c(=O)[nH]c2=O)c(=O)[nH]c1=O | – | – | – | > 100 µM | – | > 100 µM | > 100 µM | > 100 µM | – | > 100 µM | – | – | > 100 µM | – | – | > 100 µM | – | – | – | –
18 | CC1CN1C(=O)NCCCCCCNC(=O)N1CC1C (configuration not stated) | > 100 µM | 98.3 µM | > 100 µM | > 100 µM | > 100 µM | > 100 µM | > 100 µM | > 100 µM | – | > 100 µM | – | – | > 60.3 µM | – | – | > 100 µM | – | – | – | –
